Data from patent publication US20260158136A1, “MEDICAMENT FOR TREATMENT AND/OR PREVENTION OF CANCER” (TORAY INDUSTRIES, INC., priority 2022, published 2026).

Columns and labels:
Format in all cases: cell-based
[1] = test system: human colon cancer cell line (HCT116); assay: THP-1-mediated phagocytic activity against HCT116, anti-CAPRIN-1 antibody with palbociclib or abemaciclib, control IgG included (Example 2B); conditions: Dunnett's test, p<0.001; anti-CAPRIN-1 antibody treatment group; FIG. 2
Protocol: Specifically, in CDK inhibitor combination test group, the indicated drug used in combination was applied to human cancer cells, and then the cancer cells were cocultured with human monocytic cells (THP-1) in the presence of the anti-CAPRIN-1 antibody, and the antibody-mediated phagocytic activity against the cancer cells by THP-1 was evaluated. A human IgG antibody (Sigma-Aldrich Co. LLC, Cat. No.: 4506) was used as a control antibody.
The human-derived cancer cell used was a colon cancer cell line HCT116. On a 6-well plate, the human-derived cancer cells were cultured for 2 days in the presence of the palbociclib ([…]) or abemaciclib (1 μM), for the CDK inhibitor combination test group. As a control, a test group without a drug used in combination, in which only the anti-CAPRIN-1 antibody was added, was established. […]
(§1) Each cancer cell line after the culture was dissociated with TrypLE Express (Thermo), and the cancer cells were stained by the addition of calcein-AM at a final concentration of 0.04 μg/mL and incubation at 37° C. for 10 minutes. […] Further, dead cells were stained with propidium iodide (PI) (final concentration: 0.1 μg/mL), followed by the measurement of fluorescence from the cells by flow cytometry. […] Thus, the phagocytic activity in this evaluation system was calculated as the ratio (%) of APC-positive/calcein-AM-positive cells to the whole calcein-AM-positive population.

[2] = test system: human colon cancer cell line (HCT116); assay: THP-1-mediated phagocytic activity against HCT116, anti-CAPRIN-1 antibody with palbociclib or abemaciclib (Example 2A); conditions: Student's t test, p<0.001; with anti-CAPRIN-1 antibody; FIG. 1
Protocol: Specifically, in CDK inhibitor combination test group, the indicated drug used in combination was applied to human cancer cells, and then the cancer cells were cocultured with human monocytic cells (THP-1) in the presence of the anti-CAPRIN-1 antibody, and the antibody-mediated phagocytic activity against the cancer cells by THP-1 was evaluated.
The human-derived cancer cell used was a colon cancer cell line HCT116. On a 6-well plate, the human-derived cancer cells were cultured for 2 days in the presence of palbociclib (10 μM) or abemaciclib (1 μM) for the CDK inhibitor combination test group. As a control, a test group without a drug used in combination, in which only the anti-CAPRIN-1 antibody was added, was established. […]
as §1

[3] = test system: human colon cancer cell line (HCT116); assay: THP-1-mediated phagocytic activity against HCT116, anti-CAPRIN-1 antibody with palbociclib or cisplatin (Example 5); conditions: for phagocytic activity of combination test group compared with test group without a drug used in combination: Dunnett's test, with anti-CAPRIN-1 antibody, FIG. 5; for phagocytic activity against cancer cells: drug combination test group: HCT116 cultured 2 days with palbociclib 10 μM or cisplatin 1 μM, then anti-CAPRIN-1 humanized antibody #1 1 μg/mL + THP-1, 1 h
Protocol: Specifically, in each inhibitor combination test group, the indicated drug used in combination was applied to human cancer cells, and then the cancer cells were cocultured with human monocytic cells (THP-1) in the presence of the anti-CAPRIN-1 antibody, and the antibody-mediated phagocytic activity against the cancer cells by THP-1 was evaluated.
The human-derived cancer cell used was a colon cancer cell line HCT116. On a 6-well plate, the human-derived cancer cells were cultured for 2 days in the presence of the respective drugs used in combination, for the palbociclib combination test group. Specifically, palbociclib was added at a concentration of 10 μM and cisplatin at a concentration of 1 μM to HCT 116. As a control, a test group without a drug used in combination, in which only the anti-CAPRIN-1 antibody was added, was established. In the control group, the cancer cells were cultured for 2 days without addition of the drug used in combination beforehand.
(§2) Each cancer cell line after the culture was dissociated with TrypLE Express (Thermo), and the cancer cells were stained by the addition of calcein-AM at a final concentration of 0.04 μg/mL and incubation at 37° C. for 10 minutes. Next, the cells were dispensed at 1×10^4 cancer cells per well to a 96-well plate, and the anti-CAPRIN-1 antibody at a final concentration of 1 μg/mL and 10×10^5 THP-1 cells were added to each well, followed by culture at 37° C. for 1 hour under a condition of 5% CO2. Then, the cells were washed with PBS (phosphate buffer solution) containing 1% FBS (fetal bovine serum), and the human monocytic cells were stained through a reaction with an APC (allophycocyanin)-labeled anti-human CD45 antibody (final concentration: 0.25 μg/mL). Further, dead cells were stained with propidium iodide (PI) (final concentration: 0.1 μg/mL), followed by the measurement of fluorescence from the cells by flow cytometry. PI-positive dead cells were excluded from analysis. The human monocytic cells THP-1 recognize an antibody bound onto cancer cells and phagocytize the cancer cells. At that time, if the cancer cells have been stained with calcein-AM, the monocytic cells ingesting the cancer cells by phagocytosis also become positive to calcein-AM. Thus, the phagocytic activity in this evaluation system was calculated as the ratio (%) of APC-positive/calcein-AM-positive cells to the whole calcein-AM-positive population.

[4] = test system: human colon cancer cell line (HCT116); assay: THP-1-mediated phagocytic activity against HCT116, anti-CAPRIN-1 antibody with ribociclib (Example 3)
Protocol: Specifically, in CDK inhibitor combination test group, the indicated ribociclib was applied to human cancer cells, and then the cancer cells were cocultured with human monocytic cells (THP-1) in the presence of the anti-CAPRIN-1 antibody, and the antibody-mediated phagocytic activity against the cancer cells by THP-1 was evaluated.
The human-derived cancer cell used was a colon cancer cell line HCT116. On a 6-well plate, the human-derived cancer cells were cultured for 2 days in the presence of the ribociclib (30 μM), for the CDK inhibitor combination test group. As a control, a test group without a drug used in combination, in which only the anti-CAPRIN-1 antibody was added, was established. In the control group, the cancer cells were cultured for 2 days without addition of the drug used in combination beforehand.
as §2, with “5×10^3” for “1×10^4”, “1.25×10^5” for “10×10^5”, “At that time, if the cancer cells have been stained with calcein-AM, the monocytic cells ingesting the cancer cells by phagocytosis also become positive to calcein-AM.” left out

[5] = test system: human colon cancer cell line (HCT116); assay: THP-1-mediated phagocytic activity against HCT116, anti-CAPRIN-1, anti-CD20 or anti-HER-2 antibody alone or with palbociclib (Example 4)
Protocol: The human-derived cancer cell used was a colon cancer cell line HCT116. On a 6-well plate, the human-derived cancer cells were cultured for 2 days in the presence of the respective drugs used in combination for the palbociclib combination test group. Specifically, palbociclib was added at a concentration of 10 μM to HCT 116. […] In the control group, the cancer cells were cultured for 2 days without addition of palbociclib beforehand.
as §2, with “Next, the cells were dispensed at 1×10^4 cancer cells per well to a 96-well plate, and the anti-CAPRIN-1 antibody at a final concentration of 1 μg/mL and 10×10^5 THP-1 cells were added to each well, followed by culture at 37° C. for 1 hour under a condition of 5% CO2.” left out, “[…]).” for “μg/mL).”

Compound	phagocytic activity of combination test group compared with test group without a drug used in combination [1]	phagocytic activity of combination test group compared with test group without a drug used in combination [2]	phagocytic activity of combination test group compared with test group without a drug used in combination [3]	phagocytic activity against cancer cells [3] [%]	other results
CCN1CCN(Cc2ccc(Nc3ncc(F)c(-c4cc(F)c5nc(C)n(C(C)C)c5c4)n3)nc2)CC1 [abemaciclib, N-[5-[(4-ethylpiperazin-1-yl)methyl]pyridin-2-yl]-5-fluoro-4-(7-fluoro-2-methyl-3-propan-2-ylbenzimidazol-5-yl)pyrimidin-2-amine]	significantly higher	significantly higher	–	–	–
N.N.[Cl][Pt][Cl] [cisplatin]	–	–	no significant change	≤ 23	–
CC(=O)c1c(C)c2cnc(Nc3ccc(N4CCNCC4)cn3)nc2n(C2CCCC2)c1=O [palbociclib, 6-acetyl-8-cyclopentyl-5-methyl-2-[(5-piperazin-1-ylpyridin-2-yl)amino]pyrido[2,3-d]pyrimidin-7-one]	significantly higher	significantly higher	significantly higher	≥ 54	–
CN(C)C(=O)c1cc2cnc(Nc3ccc(N4CCNCC4)cn3)nc2n1C1CCCC1 [ribociclib, 7-cyclopentyl-N,N-dimethyl-2-[(5-piperazin-1-ylpyridin-2-yl)amino]pyrrolo[2,3-d]pyrimidine-6-carboxamide]	–	–	–	–	phagocytic activity of combination test group compared with test group without a drug used in combination ([4]; Dunnett's test, p<0.001, with anti-CAPRIN-1 antibody, FIG. 3): significantly higher; increase of antitumor effect of the anti-CAPRIN-1 antibody by the combination ([4]; combination versus antibody alone, HCT116): ≥ 2.5 times; phagocytic activity against cancer cells ([4]; ribociclib combination test group: HCT116 cultured 2 days with ribociclib 30 μM, then anti-CAPRIN-1 humanized antibody #1 1 μg/mL + THP-1, 1 h): ≥ 58%
anti-CD20 antibody: anti-CD20 antibody ("Rituxan") purchased from Chugai Pharmaceutical Co., Ltd.	–	–	–	–	effect of palbociclib combination on phagocytic activity compared with antibody without a drug used in combination ([5]; palbociclib 10 μM, Dunnett's test, FIG. 4): not remarkably increased; phagocytic activity against cancer cells ([5]; palbociclib combination test group: HCT116 cultured 2 days with palbociclib 10 μM, then antibody at final concentration 1 μg/mL + THP-1, 1 h): ≤ 11%; phagocytic activity against cancer cells ([5]; test group without a drug used in combination: antibody only, 1 μg/mL + THP-1, 1 h): ≤ 7%
